Measurements published in PubChem BioAssay AID2060908 (Molecular Pharmacology Branch, DTP, NCI, 2025).
Each block holds one molecule with its values, some of them ahead of it.

Tested on: 186277-243-T-J2-PDC complex spheroids, viability
Assay: Anticancer human tumor 186277-243-T-J2-PDC patient-derived colon adenocarcinoma cell line growth inhibition [RAS]
Settings: for IC50: curve of first compound; for viability, T/C: stronger effect = lower value
In short: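 Agents were tested in combination matrices in half-log decrements from a top concentration at or near clinical Cmax (10 microM if undetermined). Targets were multi-cell spheroids of tumour lines plus HUVEC and MSC stromal cells.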

[1] = second compound 0.000949 µM, first compound 0.0316 µM
[2] = second compound 0.000949 µM, first compound 0.1 µM
[3] = second compound 0.000949 µM, first compound 0.316 µM
[4] = second compound 0.000949 µM, first compound 1 µM
[5] = second compound 0.003 µM, first compound 0.0316 µM
[6] = second compound 0.003 µM, first compound 0.1 µM
[7] = second compound 0.003 µM, first compound 0.316 µM
[8] = second compound 0.003 µM, first compound 1 µM
[9] = second compound 0.00949 µM, first compound 0.0316 µM
[10] = second compound 0.00949 µM, first compound 0.1 µM
[11] = second compound 0.00949 µM, first compound 0.316 µM
[12] = second compound 0.00949 µM, first compound 1 µM
[13] = second compound 0.03 µM, first compound 0.0316 µM
[14] = second compound 0.03 µM, first compound 0.1 µM
[15] = second compound 0.03 µM, first compound 0.316 µM
[16] = second compound 0.03 µM, first compound 1 µM
[17] = second compound 0.0949 µM, first compound 0.0316 µM
[18] = second compound 0.0949 µM, first compound 0.1 µM
[19] = second compound 0.0949 µM, first compound 0.316 µM
[20] = second compound 0.0949 µM, first compound 1 µM
[21] = second compound 0.3 µM, first compound 0.0316 µM
[22] = second compound 0.3 µM, first compound 0.1 µM
[23] = second compound 0.3 µM, first compound 0.316 µM
[24] = second compound 0.3 µM, first compound 1 µM
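Further: spheroids exposed to compounds for 7 days before viability read.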

IC50 (second compound 0.000949 µM): < 31.6 nM
IC50 (second compound 0.003 µM): < 31.6 nM
IC50 (second compound 0.00949 µM): < 31.6 nM
IC50 (second compound 0.03 µM): < 31.6 nM
IC50 (second compound 0.0949 µM): < 31.6 nM
IC50 (second compound 0.3 µM): < 31.6 nM
SMILES: CC(=O)OC12COC1CC(O)C1(C)C(=O)C(O)C3=C(C)C(OC(=O)C(O)C(NC(=O)OC(C)(C)C)c4ccccc4)CC(O)(C(OC(=O)c4ccccc4)C21)C3(C)C (stereo unspecified) + CCn1c(-c2cccnc2C(C)OC)c2c3cc(ccc31)N1CCOC(CC(NC(=O)C(C(C)C)N(C)C(=O)C3(F)CCN(C(=O)C#CC(C)(C)N(C)C)CC3)C(=O)N3CCCC(N3)C(=O)OCC(C)(C)C2)C1
viability, T/C [1]: 6.09%
viability, T/C [2]: 4.29%
viability, T/C [3]: 4.45%
viability, T/C [4]: 5%
viability, T/C (second compound 0.000949 µM, first compound 3.16 µM): 4.34%
viability, T/C (second compound 0.000949 µM, first compound 10 µM): 4.13%
viability, T/C [5]: 6%
viability, T/C [6]: 5.13%
viability, T/C [7]: 5.03%
viability, T/C [8]: 4.41%
viability, T/C (second compound 0.003 µM, first compound 3.16 µM): 4.14%
viability, T/C (second compound 0.003 µM, first compound 10 µM): 4.35%
viability, T/C [9]: 6.17%
viability, T/C [10]: 4.96%
viability, T/C [11]: 4.57%
viability, T/C [12]: 4.98%
viability, T/C (second compound 0.00949 µM, first compound 3.16 µM): 4.48%
viability, T/C (second compound 0.00949 µM, first compound 10 µM): 3.96%
viability, T/C [13]: 5.87%
viability, T/C [14]: 4.93%
viability, T/C [15]: 4.72%
viability, T/C [16]: 3.83%
viability, T/C (second compound 0.03 µM, first compound 3.16 µM): 4.63%
viability, T/C (second compound 0.03 µM, first compound 10 µM): 4.2%
viability, T/C [17]: 5.78%
viability, T/C [18]: 4.53%
viability, T/C [19]: 4.78%
viability, T/C [20]: 4.23%
viability, T/C (second compound 0.0949 µM, first compound 3.16 µM): 4.24%
viability, T/C (second compound 0.0949 µM, first compound 10 µM): 4.22%
viability, T/C [21]: 4.84%
viability, T/C [22]: 3.52%
viability, T/C [23]: 3.6%
viability, T/C [24]: 3.55%
viability, T/C (second compound 0.3 µM, first compound 3.16 µM): 3.32%
viability, T/C (second compound 0.3 µM, first compound 10 µM): 3.72%

IC50 (second compound 0.000949 µM): 9.82 nM
IC50 (second compound 0.003 µM): 13.6 nM
IC50 (second compound 0.00949 µM): 11.1 nM
IC50 (second compound 0.03 µM): 10.2 nM
IC50 (second compound 0.0949 µM): 7.53 nM
IC50 (second compound 0.3 µM): 2.85 nM
SMILES: CCc1c2c(nc3ccc(O)cc13)-c1cc3c(c(=O)n1C2)COC(=O)[C@]3(O)CC + CCn1c(-c2cccnc2C(C)OC)c2c3cc(ccc31)N1CCOC(CC(NC(=O)C(C(C)C)N(C)C(=O)C3(F)CCN(C(=O)C#CC(C)(C)N(C)C)CC3)C(=O)N3CCCC(N3)C(=O)OCC(C)(C)C2)C1
viability, T/C (second compound 0.000949 µM, first compound 0.000949 µM): 157%
viability, T/C (second compound 0.000949 µM, first compound 0.003 µM): 83.7%
viability, T/C (second compound 0.000949 µM, first compound 0.00949 µM): 52.5%
viability, T/C (second compound 0.000949 µM, first compound 0.03 µM): 35.5%
viability, T/C (second compound 0.000949 µM, first compound 0.0949 µM): 17.3%
viability, T/C (second compound 0.000949 µM, first compound 0.3 µM): 12.1%
viability, T/C (second compound 0.003 µM, first compound 0.000949 µM): 142%
viability, T/C (second compound 0.003 µM, first compound 0.003 µM): 91.9%
viability, T/C (second compound 0.003 µM, first compound 0.00949 µM): 55.8%
viability, T/C (second compound 0.003 µM, first compound 0.03 µM): 37.4%
viability, T/C (second compound 0.003 µM, first compound 0.0949 µM): 18.2%
viability, T/C (second compound 0.003 µM, first compound 0.3 µM): 12.9%
viability, T/C (second compound 0.00949 µM, first compound 0.000949 µM): 142%
viability, T/C (second compound 0.00949 µM, first compound 0.003 µM): 85.4%
viability, T/C (second compound 0.00949 µM, first compound 0.00949 µM): 53.8%
viability, T/C (second compound 0.00949 µM, first compound 0.03 µM): 34.4%
viability, T/C (second compound 0.00949 µM, first compound 0.0949 µM): 15.9%
viability, T/C (second compound 0.00949 µM, first compound 0.3 µM): 12.1%
viability, T/C (second compound 0.03 µM, first compound 0.000949 µM): 139%
viability, T/C (second compound 0.03 µM, first compound 0.003 µM): 80.6%
viability, T/C (second compound 0.03 µM, first compound 0.00949 µM): 54.1%
viability, T/C (second compound 0.03 µM, first compound 0.03 µM): 33%
viability, T/C (second compound 0.03 µM, first compound 0.0949 µM): 17%
viability, T/C (second compound 0.03 µM, first compound 0.3 µM): 12.2%
viability, T/C (second compound 0.0949 µM, first compound 0.000949 µM): 102%
viability, T/C (second compound 0.0949 µM, first compound 0.003 µM): 68.6%
viability, T/C (second compound 0.0949 µM, first compound 0.00949 µM): 48%
viability, T/C (second compound 0.0949 µM, first compound 0.03 µM): 25%
viability, T/C (second compound 0.0949 µM, first compound 0.0949 µM): 15.1%
viability, T/C (second compound 0.0949 µM, first compound 0.3 µM): 10.3%
viability, T/C (second compound 0.3 µM, first compound 0.000949 µM): 69.7%
viability, T/C (second compound 0.3 µM, first compound 0.003 µM): 47.5%
viability, T/C (second compound 0.3 µM, first compound 0.00949 µM): 34%
viability, T/C (second compound 0.3 µM, first compound 0.03 µM): 17.7%
viability, T/C (second compound 0.3 µM, first compound 0.0949 µM): 10.5%
viability, T/C (second compound 0.3 µM, first compound 0.3 µM): 8.49%

IC50 (second compound 0.000949 µM): 4.49 nM
IC50 (second compound 0.003 µM): 4.28 nM
IC50 (second compound 0.00949 µM): 3.48 nM
IC50 (second compound 0.03 µM): 4.6 nM
IC50 (second compound 0.0949 µM): < 3.16 nM
IC50 (second compound 0.3 µM): < 3.16 nM
SMILES: Nc1ccn(C2OC(CO)C(O)C2(F)F)c(=O)n1 (stereo unspecified) + CCn1c(-c2cccnc2C(C)OC)c2c3cc(ccc31)N1CCOC(CC(NC(=O)C(C(C)C)N(C)C(=O)C3(F)CCN(C(=O)C#CC(C)(C)N(C)C)CC3)C(=O)N3CCCC(N3)C(=O)OCC(C)(C)C2)C1
viability, T/C (second compound 0.000949 µM, first compound 0.00316 µM): 67.5%
viability, T/C (second compound 0.000949 µM, first compound 0.01 µM): 10.1%
viability, T/C [1]: 8.11%
viability, T/C [2]: 7.98%
viability, T/C [3]: 8.36%
viability, T/C [4]: 8.73%
viability, T/C (second compound 0.003 µM, first compound 0.00316 µM): 63.9%
viability, T/C (second compound 0.003 µM, first compound 0.01 µM): 11.2%
viability, T/C [5]: 8.78%
viability, T/C [6]: 8.02%
viability, T/C [7]: 8.07%
viability, T/C [8]: 8.41%
viability, T/C (second compound 0.00949 µM, first compound 0.00316 µM): 53.5%
viability, T/C (second compound 0.00949 µM, first compound 0.01 µM): 10.5%
viability, T/C [9]: 9.25%
viability, T/C [10]: 7.85%
viability, T/C [11]: 8.92%
viability, T/C [12]: 8.55%
viability, T/C (second compound 0.03 µM, first compound 0.00316 µM): 68.8%
viability, T/C (second compound 0.03 µM, first compound 0.01 µM): 10.9%
viability, T/C [13]: 8.53%
viability, T/C [14]: 8.14%
viability, T/C [15]: 8.68%
viability, T/C [16]: 8.3%
viability, T/C (second compound 0.0949 µM, first compound 0.00316 µM): 44.6%
viability, T/C (second compound 0.0949 µM, first compound 0.01 µM): 10.5%
viability, T/C [17]: 8.39%
viability, T/C [18]: 7.33%
viability, T/C [19]: 8.62%
viability, T/C [20]: 7.75%
viability, T/C (second compound 0.3 µM, first compound 0.00316 µM): 30.3%
viability, T/C (second compound 0.3 µM, first compound 0.01 µM): 7.82%
viability, T/C [21]: 6.28%
viability, T/C [22]: 6.15%
viability, T/C [23]: 6.47%
viability, T/C [24]: 5.78%
